Measurements from a melting point compilation (Tetko et al.; mined from patent text by program, amines drawn as free bases though some values may be those of a salt).

First: COc1ccc(-c2c(Cl)c(CN3C(=O)CCC3=O)nc3sc4c(c23)CCNC4)cc1OC
Second: CCOC(=O)c1ccc(-c2c(Cl)c(CCl)nc3sc4c(c23)CCN(C(=O)OCc2ccccc2)C4)cc1
The melting point of the first is higher: 250 to 252 °C for the first, 123 to 124 °C for the second.

Compared with `COc1ccc(C(=O)Nc2ccccc2)cc1NC(=S)Nc1ccccc1C`, `O=C(O)COc1cccc(COC(=O)N(c2ccccc2)c2ccccc2)c1Cl` is higher in melting point: 172 to 174 °C for the first, 182 to 183 °C for the second.

First: Cc1cc(SCc2cccc3cn(-c4ccc(C(F)(F)F)cc4)nc23)ccc1OCC(=O)O
Second: COc1ccc(COc2cccc(-c3cnc4[nH]cc(C(=O)C(C)(C)C)c4n3)c2)cc1
The melting point of the first is lower: 79 to 81 °C for the first, greater than 300 °C for the second.

First: CCCCCCCCOc1ccc2c(c1CCC)OC(CCC(=O)O)(CCC(=O)O)CC2=O
Second: CCCCCCCCNC(=O)N(CCCCCSc1nc(-c2ccccc2)c(-c2ccccc2)[nH]1)c1ccccc1
The melting point of the first is higher: 148 °C for the first, 74 to 76 °C for the second.

First: COc1ccc(OC)c2c1C(=O)C=C(SCCO)C2=O
Second: COc1cc(CC(=O)N2CCN(c3nsc4ccccc34)CC2)c([N+](=O)[O-])cc1OC
The melting point of the first is lower: 117 to 118 °C for the first, 170 °C for the second.

First: CCc1cc(OCc2ccc3oc(-c4ccccc4C(=O)OC)nc3c2)c2c(n1)CCCC2
Second: CCOc1cc(C(=O)OC)nc2cc(OC)c3ncccc3c12
The melting point of the first is lower: 131 to 132 °C for the first, 188 to 190 °C for the second.

First: COc1cccc(OC)c1-c1ccc(C[C@H](NC(=O)c2c(Cl)cc(-c3nccs3)cc2Cl)C(=O)O)cc1
Second: Cc1nc(N2CCN(Cc3ccc(OC(F)(F)F)cc3)C2=O)sc1C(=O)NCCc1cccnc1
The melting point of the first is lower: 142 °C for the first, 172 to 173 °C for the second.

First: Cc1cccc2c(C(=O)O)cc(-c3ccccn3)nc12
Second: Cc1cc2ccccc2n1-c1ccnc2ccccc12
The melting point of the first is higher: 319 to 320 °C for the first, 78 to 80 °C for the second.

Compared with `CC1(C)CC(=O)C(C(=S)Nc2ccc(Cl)c(Cl)c2)C(=O)C1`, `Cc1cc(C(=O)N2CCC3(CC2)CSC2=C(O3)c3ccccc3C(=O)C2=O)n(C)n1` is higher in melting point: 113 to 116 °C for the first, 244 to 245 °C for the second.

First: Cc1cc(SC(C)C)c(NC(=O)CCCCCCCSc2nc3ccccc3s2)c(SC(C)C)n1
Second: CCCOc1ccccc1-c1nc2nc(NCCCSC)ncc2c(=O)[nH]1
The melting point of the first is lower: 107 to 108 °C for the first, 173 to 174 °C for the second.

First: OCc1csc(Nc2ccccc2)n1
Second: CCCCc1nc(=O)n2nc(-c3ccccc3)cc2[nH]1
The melting point of the first is lower: 115 to 118 °C for the first, 234 °C for the second.

First: CCOC(=O)c1cnn(-c2ccc(OC(F)(F)F)cc2)c1N
Second: CCOC(=O)COc1ccc(C=O)cc1
The melting point of the first is higher: 102 to 103 °C for the first, 39 °C for the second.

Compared with `O=C(O)Cc1cc([N+](=O)[O-])ccc1Oc1ccc(F)cc1`, `Cc1cc(OCc2ccccc2)cc(C)c1CC(=O)O` is higher in melting point: 129 to 130 °C for the first, 149 to 150 °C for the second.

First: C=C1CN(c2c(F)cc3c(=O)c(C(=O)O)cn([C@@H]4C[C@@H]4F)c3c2OC)C[C@@]1(C)N
Second: CC(=O)OC1C(NC(=O)c2ccc(C(F)(F)F)cc2)c2sc(C(C)=O)cc2OC1(C)C (centres undefined)
The melting point of the first is lower: 100 to 102 °C for the first, 225 to 227 °C for the second.

First: CC(=O)OCC1OC(OC(C)=O)C(N=[N+]=[N-])C([N+](=O)[O-])C1OC(C)=O (centres undefined)
Second: CC(C)(C)OC(=O)N1CCC(COc2ccc(C=NO)cc2)CC1
The melting point of the first is lower: 118 to 120 °C for the first, 140 to 142 °C for the second.

Compared with `COc1c(C#N)ccc2c1Cc1ccccc1CS2`, `O=C1c2ccccc2-n2cncc2[C@@H]2CCN12` is higher in melting point: 117 to 118 °C for the first, 195 to 197 °C for the second.

First: C=CCC1(C(=O)NCC)c2ccccc2Oc2ccccc21
Second: CCN=C1SC2CCOc3ccc([N+](=O)[O-])cc3C2(O)N1CC (centres undefined)
The melting point of the first is lower: 111 to 112 °C for the first, 125 to 127 °C for the second.

First: Cc1ncc(CCCCC(=O)O)s1
Second: CCOC(=O)[C@H](O)[C@@H](NC(=O)OC(C)(C)C)c1ccc(C)cc1
The melting point of the first is lower: 75 °C for the first, 130 °C for the second.

First: Cc1ccc(C2C(=O)Oc3c2cc(C(C)(C)C)cc3C(C)(C)C)cc1C (centres undefined)
Second: Cc1nnc(-c2cnc3occ(-c4ccc(S(C)(=O)=O)cc4)c3c2)o1
The melting point of the first is lower: 130 to 132 °C for the first, 251 to 252 °C for the second.

`CC(C)(O)c1ccc(C#N)cc1` gave a melting point of 45 to 47 °C.
